ChEMBL document CHEMBL2384983, “A cyclodextrin-capped histone deacetylase inhibitor” (Bioorg Med Chem Lett, 2013)

Key:
Histone deacetylase 8 = target: T1, Histone deacetylase 8 (Homo sapiens, UniProt Q9BY41); test: Inhibition of HDAC8 (unknown origin)
T1 sequence (Q9BY41 whole entry): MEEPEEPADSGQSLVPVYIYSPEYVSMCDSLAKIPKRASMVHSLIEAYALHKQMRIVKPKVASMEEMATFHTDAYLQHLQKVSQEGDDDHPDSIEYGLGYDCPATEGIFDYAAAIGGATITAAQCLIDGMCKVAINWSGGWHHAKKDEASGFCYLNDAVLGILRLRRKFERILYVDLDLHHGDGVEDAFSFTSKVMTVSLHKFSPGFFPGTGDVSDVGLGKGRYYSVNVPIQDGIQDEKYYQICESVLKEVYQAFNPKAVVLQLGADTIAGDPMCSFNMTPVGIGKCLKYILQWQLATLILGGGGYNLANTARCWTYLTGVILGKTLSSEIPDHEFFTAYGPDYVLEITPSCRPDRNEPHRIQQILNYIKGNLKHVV

[1] = target: T2, Protein deacetylase HDAC6 (Homo sapiens, UniProt Q9UBN7); test: Inhibition of HDAC6 (unknown origin)
T2 sequence (Q9UBN7 whole entry): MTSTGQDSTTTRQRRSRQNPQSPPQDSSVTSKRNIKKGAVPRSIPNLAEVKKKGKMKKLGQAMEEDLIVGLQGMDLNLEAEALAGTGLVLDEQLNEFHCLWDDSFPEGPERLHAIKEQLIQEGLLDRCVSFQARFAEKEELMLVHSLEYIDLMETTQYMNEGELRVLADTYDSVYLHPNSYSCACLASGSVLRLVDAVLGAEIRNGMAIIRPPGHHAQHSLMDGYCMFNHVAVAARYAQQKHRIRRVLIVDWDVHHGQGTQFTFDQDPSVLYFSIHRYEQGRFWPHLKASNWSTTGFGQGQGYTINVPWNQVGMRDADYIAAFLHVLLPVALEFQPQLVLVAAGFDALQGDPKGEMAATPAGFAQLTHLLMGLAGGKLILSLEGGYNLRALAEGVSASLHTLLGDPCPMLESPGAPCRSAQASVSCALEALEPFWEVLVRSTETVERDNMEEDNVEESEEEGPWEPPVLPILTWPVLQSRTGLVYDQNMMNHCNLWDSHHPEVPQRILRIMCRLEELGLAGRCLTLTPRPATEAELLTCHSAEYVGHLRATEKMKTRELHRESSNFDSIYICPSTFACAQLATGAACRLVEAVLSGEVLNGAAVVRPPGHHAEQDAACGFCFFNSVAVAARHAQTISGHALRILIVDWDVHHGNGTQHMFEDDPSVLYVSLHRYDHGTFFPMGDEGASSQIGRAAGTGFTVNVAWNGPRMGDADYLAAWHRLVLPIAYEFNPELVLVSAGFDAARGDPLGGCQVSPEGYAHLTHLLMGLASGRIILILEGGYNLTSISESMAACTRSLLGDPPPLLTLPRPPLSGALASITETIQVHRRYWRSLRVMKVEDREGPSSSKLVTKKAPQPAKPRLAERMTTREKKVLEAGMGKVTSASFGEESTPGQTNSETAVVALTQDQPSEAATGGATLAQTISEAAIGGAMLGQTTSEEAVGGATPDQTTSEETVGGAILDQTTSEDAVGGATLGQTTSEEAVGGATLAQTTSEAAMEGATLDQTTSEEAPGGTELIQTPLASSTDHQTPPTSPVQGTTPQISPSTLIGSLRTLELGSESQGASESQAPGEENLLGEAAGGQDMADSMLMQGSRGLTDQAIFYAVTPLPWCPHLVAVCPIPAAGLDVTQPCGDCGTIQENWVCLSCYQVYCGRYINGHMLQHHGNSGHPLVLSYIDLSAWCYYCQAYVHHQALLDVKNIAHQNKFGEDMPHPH

Histone deacetylase 1 = Histone deacetylase 1 (Homo sapiens, UniProt Q13547); test: Inhibition of HDAC1 (unknown origin)
Chain of Histone deacetylase 1 (Q13547 whole entry): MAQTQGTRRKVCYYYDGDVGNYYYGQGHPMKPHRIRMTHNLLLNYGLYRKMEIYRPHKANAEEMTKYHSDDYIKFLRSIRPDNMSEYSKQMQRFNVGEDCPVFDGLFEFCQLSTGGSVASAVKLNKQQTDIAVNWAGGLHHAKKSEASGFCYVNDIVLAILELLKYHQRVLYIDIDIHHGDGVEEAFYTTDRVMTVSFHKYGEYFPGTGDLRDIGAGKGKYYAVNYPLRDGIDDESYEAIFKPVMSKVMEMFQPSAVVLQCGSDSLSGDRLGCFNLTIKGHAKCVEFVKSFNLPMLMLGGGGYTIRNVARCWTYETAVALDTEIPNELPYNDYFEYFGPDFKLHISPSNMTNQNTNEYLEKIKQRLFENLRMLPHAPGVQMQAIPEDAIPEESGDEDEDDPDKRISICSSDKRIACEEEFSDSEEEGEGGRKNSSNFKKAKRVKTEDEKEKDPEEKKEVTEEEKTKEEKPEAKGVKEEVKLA

Histone deacetylase 2 = Histone deacetylase 2 (Homo sapiens, UniProt Q92769); test: Inhibition of HDAC2 (unknown origin)
Chain of Histone deacetylase 2 (Q92769 whole entry): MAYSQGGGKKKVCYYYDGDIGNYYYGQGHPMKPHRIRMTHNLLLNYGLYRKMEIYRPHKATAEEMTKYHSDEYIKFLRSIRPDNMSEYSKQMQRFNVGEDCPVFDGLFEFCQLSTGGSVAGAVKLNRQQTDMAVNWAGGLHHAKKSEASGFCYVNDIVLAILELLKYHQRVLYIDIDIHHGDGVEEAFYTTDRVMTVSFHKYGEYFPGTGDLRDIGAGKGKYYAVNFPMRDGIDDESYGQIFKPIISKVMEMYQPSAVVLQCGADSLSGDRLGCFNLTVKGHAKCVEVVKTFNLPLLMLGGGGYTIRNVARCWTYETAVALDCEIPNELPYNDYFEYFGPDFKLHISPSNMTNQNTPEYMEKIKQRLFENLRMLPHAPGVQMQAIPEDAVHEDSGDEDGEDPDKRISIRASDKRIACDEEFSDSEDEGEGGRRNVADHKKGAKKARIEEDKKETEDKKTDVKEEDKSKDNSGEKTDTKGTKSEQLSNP

Histone deacetylase 3 = Histone deacetylase 3 (Homo sapiens, UniProt O15379); test: Inhibition of HDAC3 (unknown origin)
Chain of Histone deacetylase 3 (O15379 whole entry): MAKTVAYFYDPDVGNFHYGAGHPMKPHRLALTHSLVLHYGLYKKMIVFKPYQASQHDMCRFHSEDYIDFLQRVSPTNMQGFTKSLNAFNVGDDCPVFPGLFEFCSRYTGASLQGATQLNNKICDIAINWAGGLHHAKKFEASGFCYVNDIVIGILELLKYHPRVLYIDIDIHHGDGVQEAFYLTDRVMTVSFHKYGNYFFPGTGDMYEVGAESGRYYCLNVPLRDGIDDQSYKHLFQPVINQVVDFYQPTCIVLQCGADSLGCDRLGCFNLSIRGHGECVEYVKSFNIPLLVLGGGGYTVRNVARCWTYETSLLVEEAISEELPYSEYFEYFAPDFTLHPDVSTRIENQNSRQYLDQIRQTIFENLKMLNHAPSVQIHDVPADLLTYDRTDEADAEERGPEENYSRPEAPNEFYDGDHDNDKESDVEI

IC50 (Histone deacetylase 8): 6000 nM
IC50 [1]: 120 nM
IC50 (Histone deacetylase 1): 630 nM
IC50 (Histone deacetylase 2): 1200 nM
IC50 (Histone deacetylase 3): 1600 nM
Compound: O=C(CCCCCCC(=O)NC[C@H]1O[C@@H]2O[C@H]3[C@H](O)[C@@H](O)[C@@H](O[C@H]4[C@H](O)[C@@H](O)[C@@H](O[C@H]5[C@H](O)[C@@H](O)[C@@H](O[C@H]6[C@H](O)[C@@H](O)[C@@H](O[C@H]7[C@H](O)[C@@H](O)[C@@H](O[C@H]8[C@H](O)[C@@H](O)[C@@H](O[C@H]1[C@H](O)[C@H]2O)O[C@@H]8CO)O[C@@H]7CO)O[C@@H]6CO)O[C@@H]5CO)O[C@@H]4CO)O[C@@H]3CO)NO
